The results in this text go back to patent US12324839B2, “Testosterone-inducing peptide compounds and associated combinations” (THE ROYAL INSTITUTION FOR THE ADVANCEMENT OF …, priority 2018, dated 2025).

Molecules are shown by their SMILES. Peptide text beside a SMILES is read from it.

Series [1] relates to plasma testosterone level in Brown-Norway rats. Put plainly: Subcutaneous osmotic pump infusion of TV159-172 derivatives and N163-166, plasma testosterone (Example II). The format is in vivo. The following applies: 309 ng/kg/day, 7 days after implantation. As to the method:
(§1) Animal handling, serum, plasma, and intratesticular sample collection. Brown-Norway rats aged 36-42 days old were purchased from Charles River and aged until ˜60 days old. Rats were kept on a 12 L/12 D day cycle with lights on at 7 AM and had access to food and water ad libitum.
(§2) Jugular samples were collected via percutaneous puncture and samples were collected in EDTA coated tubes (plasma) and centrifuged at 1,300 RCF for 10 min and stored in 2 mL Wheaton glass vials (Fisher Scientific, Hampton, NH, Cat #03 337 21A) and kept at −20° C. Animals were handled according to protocols approved by the McGill University Animal Care and Use Committee, which included standard operating procedures for the amount and frequency of blood sample collections.
(§3) Hormone measurements. Testosterone levels were measured using Cayman (Ann Arbor, MI) EIA kit Cat #582701 and corticosterone levels were measured using Cayman EIA kit Cat #501320. Plasma fluid samples were diluted until controls fitted the middle of the standard curve used.
(§4) Osmotic pumps. Alzet 2006 osmotic pumps were purchased from Alzet (Cupertino, CA) with an infusion rate of 0.15 μL/hr. The peptide concentration loaded into the pumps accounted for weight gain at the time of collection and was adjusted to deliver the doses indicated in each figure. The pump infusion rates varied by production lot and were adjusted accordingly. […]

The nature of series [2]: Oral pharmacokinetics after single oral dose. The following applies: single oral dose of 10 mg peptide, gavage. The format is in vivo, Brown-Norway rats. As to the method:
(§5) For all oral experiments, administration via gavage began between 8:30-8:50 am with a 3-minute delay between each rat. Animals used for pharmacokinetic studies were fasted for 4 hrs before starting gavage at 1 pm with a 3-minute delay between each rat.
For oral pharmacokinetic experiments, jugular blood samples were collected following a single oral dose of 10 mg peptide in 1 ml of vehicle after 5, 15, 30, 45, 60, 90, and 120 minutes. Protein inhibitor cocktail (ROCHE, cOmplete protein inhibitors, Cat #11697498001), which was added into the EDTA collection tubes, was used for KVSQ and RVTQ peptides. Plasma was immediately extracted, and 100 μL of plasma were crashed with 300 μL of 100% methanol, spun at 14 000 RPM for 10 min, and the supernatant harvested. Re-extraction of the precipitant and solubilization of the pellet were as described above.
The analytical instrumentation consisted of a Thermo-Scientific ISQ Quantiva Triple Quadrupole Mass Spectrometer (QQQ), incorporating a heated electrospray ionization (HESI) source, and a Thermo-Scientific UltiMate™ 3000 UHPLC system (including, UltiMate™ 3000 RS autosampler). Analytical conditions were developed using a reference standard in a solution containing 5 μM of the corresponding peptide. The chromatography was resolved by isocratic elution of a binary solvent system incorporating (A) 0.1% Formic Acid (aq) and (B) ACN+0.1% FA and using an Agilent Eclipse Plus™ C18 analytical column (100 mm×2.1 mm ID, 1.8 μm particle). A 5 μL injection volume and solvent flow rate of 150 μL/min were used. The MS/MS acquisition time was 7 min and total run time was 8.3 min/injection. The triple Quadrupole MS/MS instrumentation conditions were as follows: the HESI source voltage was 3200 V, the sheath gas […], auxiliary gas 20 L/min, sweep gas 2.0 L/min, the ion transfer temperature was 350° C., the vaporizer temperature was 350° C., the CID gas was 1.5 (mTorr) and the dwell time was 100 msec. The Q1 Resolution (FWHM) was 0.4 (unitless) and the Q3 resolution (FWHM) was 0.7 (unitless). […]

A short description of series [3]: Peptide stability in plasma. Type of series: in vitro ADME, Brown-Norway rats. As for the experimental part: Peptide stability in plasma, oral pharmacokinetics, and quantification. For peptide stability experiments, plasma from Brown-Norway rats age 90-140 days was collected and stored at −20° C. until further use. The plasma was thawed, spun at 12 000 RPM for 10 min, and kept at 4° C. 4 μM of the various peptides were incubated with 100 μL of plasma that was warmed at 37° C. for 10 min before use. After 1, 15, 30, 60, 90 or 120 minutes, the plasma/peptide samples were crashed with 300 μL of 100% methanol, spun at 14 000 RPM for 10 min, and the supernatant collected. The methanol in the supernatant was evaporated and the samples were re-extracted. The final pellet was solubilized in 5 μL methanol followed by the addition of 100 μL of sterile double distilled water. The extracted samples were transferred to plastic tubes and placed in the autoloader of the mass spectrometer.
The analytical instrumentation consisted of a Thermo-Scientific ISQ Quantiva Triple Quadrupole Mass Spectrometer (QQQ), incorporating a heated electrospray ionization (HESI) source, and a Thermo-Scientific UltiMate™ 3000 UHPLC system (including, UltiMate™ 3000 RS autosampler). Analytical conditions were developed using a reference standard in a solution containing 5 μM of the corresponding peptide. The chromatography was resolved by isocratic elution of a binary solvent system incorporating (A) 0.1% Formic Acid (aq) and (B) ACN+0.1% FA and using an Agilent Eclipse Plus™ C18 analytical column (100 mm×2.1 mm ID, 1.8 μm particle). A 5 μL injection volume and solvent flow rate of 150 μL/min were used. The MS/MS acquisition time was 7 min and total run time was 8.3 min/injection. The triple Quadrupole MS/MS instrumentation conditions were as follows: the HESI source voltage was 3200 V, the sheath gas […], auxiliary gas 20 L/min, sweep gas 2.0 L/min, the ion transfer temperature was 350° C., the vaporizer temperature was 350° C., the CID gas was 1.5 (mTorr) and the dwell time was 100 msec. The Q1 Resolution (FWHM) was 0.4 (unitless) and the Q3 resolution (FWHM) was 0.7 (unitless). The instrument ran in a selected reaction monitoring (SRM), positive ion detection mode at various collision energies (CE) for the following mass transitions: • Ac-RITQdS-NH2: p84 (m/z 645→m/z 295, m/z 396) • RdVTQ: p72 (m/z 503→m/z 211). • Ac-RdITQ-NH2: p87 (m/z 558→m/z 391, m/z 267) • RVTQ: p64 (m/z 503→m/z 211; m/z 503→m/z 357 and m/z 503→m/z 256) • KVSQ: p95 (m/z 461→m/z 129) and (m/z 461→m/z 234)

Series [4] concerns plasma corticosterone level in Brown-Norway rats. The experiment in a line: Subcutaneous osmotic pump infusion of TV159-172 derivatives and N163-166, plasma corticosterone (Example II). Type of series: in vivo. Particulars: 40 days after implantation. As to the method:
as §1, §2, §3, §4

Series [5] has as its system plasma testosterone level in Brown-Norway rats. The experiment in a line: Oral administration (gavage) of peptides, plasma testosterone. Type of series: in vivo. Particulars: oral gavage ~580 μg/kg, 3 hrs sampling time. As to the method:
Peptides. Peptides were obtained from CanPeptide (Montreal, Quebec) with >95% purity. All peptides were dissolved in molecular grade, sterile double distilled water to obtain a 1 mM stock solution and stored at −20° C. Peptides used for oral screenings were prepared from 1 mM peptide stock and diluted in sterile tap water in a total volume of 1 mL. Peptides used for pharmacokinetic experiments were diluted at 10 mg/ml using sterile tap water. Some of the peptides were chemically modified after synthesis. The following table summarizes the peptides that have been tested:
(§6) Animal handling, blood collections, surgical procedures, and oral administration of peptides. Brown-Norway rats aged 22-28, 36-42, or 50-56 days-old were purchased from Charles River Laboratories (Senneville, Quebec) and aged until needed. Rats were kept on a 12 L/12 D day cycle with lights on at 7 AM and access to food and water ad libitum.
(§7) For all experiments, plasma samples were obtained via percutaneous jugular puncture and collected in EDTA KE/1.3 tubes (Sarstedt, Numbrecht, Germany, Cat #5072511). Blood collection time points are indicated in each figure legend. Samples were centrifuged at 1 300 RCF for 10 min, and the plasma was stored in 2 mL Wheaton glass vials (Fisher Scientific, Hampton, NH, Cat #03 337 21A) and kept at −20° C. until needed.
as §5
(§8) Plasma steroid measurements. Testosterone levels were measured using Cayman (Ann Arbor, MI) EIA kit Cat #582701, and corticosterone levels were measured using Cayman EIA kit Cat #501320. All samples were measured in duplicate according to the manufacturer's instructions. Samples were diluted until the average control levels fitted the middle of the standard curve. The number of animals used for each experiment is noted in the corresponding figure legend.

Series [6] has the same test system. The experiment in a line: Subcutaneous osmotic pump infusion of tetrapeptides, plasma testosterone (Example I). Type of series: in vivo. Particulars: 377 ng/kg/d, ~54 day-old rats, vs water. As to the method:
Osmotic pumps. Model 2006 osmotic pumps, infusing 0.15 μL/hr, were purchased from Alzet (Cupertino, CA). The peptide concentration loaded into the pumps was adjusted to deliver the doses indicated in each figure. The pump infusion rates varied by production lot and were adjusted accordingly. Pumps were loaded 24 hrs prior to surgical implantation under sterile conditions and were kept at 37° C. in PBS.
as §6, §7
Brown-Norway rats aged ˜29 day-old were implanted with osmotic infusion pumps in the interscapular region under general anesthesia with isoflurane following antisepsis using iodine. The surgical wound was closed with two to three staples that were removed a week after the surgery. Subcutaneous carprofen (Zoetis, Parsippany, NJ) was given before the surgical procedure and in the following two days for pain management.
as §8

For the molecule `CC(C)[C@H](NC(=O)[C@@H](N)CCCNC(=N)N)C(=O)N[C@H](C(=O)N[C@@H](CCC(N)=O)C(=O)O)[C@@H](C)O` [RVTQ] (H-RVTQ-OH), the results for the testosterone levels entry in series [1] and in series [5] were “significantly increased” and “did not show an effect”, respectively. The “circulating peptide levels (detection)” value in series [2] is “not detected”. In series [3] (4 μM peptide (KVSQ 12.5 μM) in 100 μL rat plasma, 37° C., 1-120 minutes), the “half-life in plasma (rank order)” value was “Ac-RITQdS-NH2>RdVTQ>Ac-RdITQ-NH2>RITQ>RVTQ>KVSQ”. Also, in series [3] (in vitro rat plasma incubation), the “stability / degradation in plasma” value is given as “rapid time-dependent degradation”. The values for the corticosterone levels result in series [4] (23 ng/kg/day) and in series [4] (treatment inducing testosterone formation (309 ng/kg/day)) were “decreased” and “not affected”, respectively. For the same molecule, the “increase in plasma testosterone levels” value in series [6] is given as “two-fold”.
